pIC50: −log10 of the molar value.
What was measured:
[1] = biological target: T1, human Kv1.5 (Homo sapiens, UniProt P22460); assay: 86Rb efflux assay, inhibition of 86Rb efflux through Kv1.5 potassium channels expressed in CHO cells; assay type: cell-based; conditions: Kv1.5 in CHO cells, 70 mM KCl, 1 minute
T1 construct: expressed in transfected cells
Description: Cells stably transfected with cDNA for human Kv1.5 (in pcDNA3 vector) were grown as confluent monolayers in 96 well tissue culture plates in MEM alpha with 10% heat inactivated fetal bovine serum and 400 μg/ml G418. Cells were incubated overnight in growth media containing 1 μCi/ml ^86 Rb to permit intracellular uptake of the isotope. At the end of the incubation period, the ^86 Rb solution was aspirated and the cells washed three times with Earls Balanced Salt Solution (EBSS) which contained (in mM) 132 NaCl 5.4 KCl, 1.8 CaCl2, 0.8 mM MgCl2 10 mM HEPES and 5 mM glucose. The cells were then preincubated for 10 minutes at room temperature in 100 μl/well of EBSS or EBSS containing test compounds. At the end of this period the wells were aspirated and to each well was then added 100 μl of a modified EBSS solution containing 70 mM KCl (NaCl replaced by KCl) and the compound to be tested. The high KCl concentration was utilized to depolarize the cells to membrane potentials that would activate Kv1.5 channels. After a 1 minute incubation in 70 mM KCl EBSS plus test compound, the solution was removed and placed into the appropriate well of a 96 well counting plate for analysis. Finally 100 μl of 0.1% sodium docecyl sulfate in EBSS was added to each well to lyse the cells. The lysate was taken for analysis to determine final cell content of ^86 Rb. Samples were counted in a Wallac Microbeta liquid scintillation counter by Cerenkov emission. Efflux was expressed as a percentage of the initial cell content of ^86 Rb.
The testing results of selective compounds from Tables 1A-C using this assay are reported in Table 2 (flux) as the potency for inhibition of ^86 Rb efflux through Kv1.5 potassium channels expressed in CHO cells by compounds of the invention.

[2] = biological target: T2, Kv1.5 potassium channel (Homo sapiens, UniProt P22460); assay: Electrophysiological studies, whole cell patch clamp, inhibition of Kv1.5 potassium currents in Chinese hamster ovary cells; assay type: cell-based; conditions: CHO cells
T2 construct: expressed in transfected cells
Description: Electrophysiological recordings of potassium currents in Chinese hamster ovary cells stably expressing the gene construct for the Kv1.5 potassium channel subunit were performed using the whole cell configuration of the patch clamp technique (Hamill et al., Pflugers Archiv 391:85, 1981). Cell lines expressing Kv1.5 were prepared using standard techniques known to those skilled in the art. Cells were plated on glass coverslips at a density of 2×10^4 cells/coverslip and used within 24-48 hours. Solutions used for electrophysiological recordings were as follows. Extracellular bathing solutions contained (in mM) 132 NaCl, 5.4 KCl, 1.8 CaCl2, 0.8 MgCl2, 10 HEPES, 5 glucose at pH 7.3. Electrode pipette solutions for measuring Kv1.5 contain (in mM) 100 KCl 5 NaCl, 2 MgCl2, 5 mM EGTA, 10 mM HEPES and 5 glucose at pH 7.4, 295 mOsm. The coverslips were placed in a small chamber (volume ~200 μl) on the mechanical stage of an inverted microscope and perfused (2 ml/min) with extracellular recording solution. Drug was applied using a series of narrow-bore glass capillary tubes (inner diameter ~100 μm) positioned approximately 200 μm from the cell.

T1 sequence (P22460 whole entry): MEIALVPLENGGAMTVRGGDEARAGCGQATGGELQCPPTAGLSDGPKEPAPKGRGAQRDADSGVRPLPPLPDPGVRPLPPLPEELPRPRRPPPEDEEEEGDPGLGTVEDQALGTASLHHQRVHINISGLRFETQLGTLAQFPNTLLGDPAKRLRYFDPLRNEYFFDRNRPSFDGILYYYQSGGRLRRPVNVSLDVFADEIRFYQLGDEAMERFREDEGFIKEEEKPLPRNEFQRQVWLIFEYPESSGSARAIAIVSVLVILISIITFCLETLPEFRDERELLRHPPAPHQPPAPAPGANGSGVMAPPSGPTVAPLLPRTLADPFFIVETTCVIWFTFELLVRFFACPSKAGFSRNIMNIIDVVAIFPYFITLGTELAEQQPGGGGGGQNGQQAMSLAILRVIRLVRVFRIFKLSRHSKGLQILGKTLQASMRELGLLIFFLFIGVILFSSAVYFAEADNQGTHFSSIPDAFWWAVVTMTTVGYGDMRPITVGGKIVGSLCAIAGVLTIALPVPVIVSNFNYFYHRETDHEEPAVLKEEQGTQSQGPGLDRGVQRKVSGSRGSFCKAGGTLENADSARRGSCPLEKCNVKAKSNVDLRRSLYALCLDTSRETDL
T2 sequence (P22460 whole entry): as above

Row | pIC50 [1] | pIC50 [2] | SMILES
1 | < 4.30 | 6.30 | CCc1ccc(S(=O)(=O)N[C@H]2c3cc(NCc4ccc(OC(F)(F)F)cc4)ccc3CC[C@@H]2O)cc1 (relative stereo) [Entry 60, trans-N1-(4-ethylphenylsulfonyl)-N7-(4-trifluoromethoxybenzyl)-1,7-diamino-1,2,3,4-tetrahydro-2-naphthalenol]
2 | 5.17 | 6.60 | CCc1ccc(S(=O)(=O)NC2c3cc(NC(=O)c4cccc(OC)c4)ccc3CCC2O)cc1 (stereo not drawn) [Entry 1]
3 | < 4.30 | 6.40 | CCc1ccc(S(=O)(=O)NC2c3cc(NC(=O)c4ccccc4OC)ccc3CCC2O)cc1 (stereo not drawn) [Entry 13]
4 | 5.54 | 7.30 | CCCCc1ccc(S(=O)(=O)NC2c3cc(NC(=O)c4cccc(OC)c4)ccc3CCC2O)cc1 (stereo not drawn) [Entry 19]
5 | 5.23 | 6.22 | CCc1ccc(S(=O)(=O)NC2c3cc(NC(=O)C4Cc5ccccc5CN4CC)ccc3CCC2O)cc1 (stereo not drawn) [Entry 24]
6 | 5.23 | 7.05 | CCc1ccc(S(=O)(=O)NC2c3cc(NC(=O)C#Cc4ccccc4)ccc3CCC2O)cc1 (stereo not drawn) [Entry 28]
7 | 5.05 |  | CCc1ccc(C(=O)Nc2ccc3c(c2)C(NS(=O)(=O)c2ccc(C(C)C)cc2)C(O)CC3)cc1 (stereo not drawn) [Entry 40]
8 | 4.54 | 5.68 | COc1cccc(C(=O)Nc2ccc3c(c2)C(NS(=O)(=O)Cc2ccccc2)C(O)CC3)c1 (stereo not drawn) [Entry 70]
9 | 4.34 |  | CCCc1ccc(S(=O)(=O)NC2c3cc(NC(=O)c4ccc([N+](=O)[O-])cc4)ccc3CCC2O)cc1 (stereo not drawn) [Entry 85]
10 | 4.41 |  | Cc1cccc(C(=O)Nc2ccc3c(c2)C(NS(=O)(=O)c2cccc(C)c2)C(O)CC3)c1 (stereo not drawn) [Entry 97]
11 | 4.70 |  | CCc1ccc(S(=O)(=O)NC2c3cc(NC(=O)c4cccs4)ccc3CCC2O)cc1 (stereo not drawn) [Entry 103]
12 | 4.92 |  | COc1cc(C)c(S(=O)(=O)NC2c3cc(NC(=O)c4ccccc4)ccc3CCC2O)c(C)c1C (stereo not drawn) [Entry 110]
13 |  | 7.00 | CCc1ccc(S(=O)(=O)NC2c3cc(N(Cc4cccnc4)C(=O)C4CC4)ccc3CCC2O)cc1 (stereo not drawn) [Entry 123]
14 |  | 6.30 | CCc1ccc(S(=O)(=O)N(Cc2cccnc2)C2c3cc(NC(=O)c4cccc(OC)c4)ccc3CCC2O)cc1 (stereo not drawn) [Entry 132]
15 |  | 7.00 | CCc1ccc(S(=O)(=O)NC2c3cc(NC(=O)C4CCCN4Cc4cccc(Cl)c4)ccc3CCC2O)cc1 (stereo not drawn) [Entry 135]
16 |  | 6.22 | CCc1ccc(S(=O)(=O)NC2c3cc(NC(=O)c4cccc(OC)c4)ccc3CCC2O)cc1 (stereo not drawn) [Entry 158]
17 |  | 6.70 | CCc1ccc(S(=O)(=O)NC2c3cc(N(Cc4cccnc4)C(=O)C4CC4)ccc3CCC2O)cc1 (stereo not drawn) [Entry 162]
